Measured values from patent publication US20030216319A1, “Specific autoimmune reactions against isomerised/optically inverted epitopes: application for treatment of autoimmune diseases” (priority 2000, published 2003).

Tests used:
[1] = tested on: immunoaffinity purified RA auto-antibodies; test: Immuno-blotting of cellulose-bound spot peptides with immunoaffinity purified RA auto-antibodies (Example 5); assay type: binding, human; conditions: IgM RF eluate 1 μg/mL
Experimental: 1. IgG is coupled to CNBr activated Sepharose using the manufacturers instructions (Pharmacia, Upsala, Sweden).
2. The IgG Sepharose is packed in a suitable column (i.e. a disposable DG10 column, BioRad laboratories, Richmond, Calif.). The column is washed with at least 10 column volumes PBS and with 10 column volumes 0.1 M sodium acetate, 0.15 M sodium chloride pH 3.5 and finally equilibrated in PBS.
3. Serum from RA patients is diluted 10 times in PBS and loaded on the column. The column is washed with PBS until the absorbency (OD 280 nm) reaches base-line.
4. Bound RF's are eluted with 0.1 M sodium acetate, 0.15 M sodium chloride pH 3.5.
5. IgM is separated from IgG and IgA by gel-filtration on a Sephadex G-200 column in 0.1 M sodium acetate, 0.15 M sodium chloride pH 3.5.
6. Eluted IgM is diluted in PBS-BT to 1 μg/mL and assayed as described below.
Seven amino-acid peptides extending over the Asn-315 residue were synthesised by spot synthesis using Whatman 540 paper (Maidstone, U.K.), using the previously described procedures (Frank, 1992, Kramer et al 1994). The peptides were automatically prepared using a spot synthesis method (Abimed, Langenfeld, FRG). The following peptides were synthesised, covalently attached via the carboxy-terminus:
The cellulose membrane containing these peptides was incubated with the immunoaffinity purified RA auto-antibodies purified as described above. […]

RA autoantibodies = test: Competition ELISA: binding of RA autoantibodies to Thy-GA-Trp-Leu-*Asx-Gly-Lys-Glu-Tyr coated plates (Example 3); design: species or system human; conditions: competitor 50 μl of 50 μg/ml pre-incubated with serum 17 hours at 4° C.; 6 RA sera
Experimental: The Thy-GA-Trp-Leu-*Asx-Gly-Lys-Glu-Tyr conjugate was dissolved in PBS to a final concentration of 10 μg/ml, and 100 μL of this solution is pipetted into the wells of a micro-titre-plate (MTP, flat-well polysorb, Nunc). the plate was blocked as described (Bonde et al 1994), and serum samples diluted one-hundred fold in 10 mM Na-phosphate, 140 mM NaCl, 0.1% tween-20, 1% BSA pH 7.4 (assay buffer) were added. The MTP was left for one hour ±5 minutes on a rotary shaker at 20° C. The plates were washed five times in washing buffer (25 mM tris, 140 mM NaCl, 0.1% tween-20 pH 7.4), by a manual plate washer. One-hundred μL assay buffer containing a one-thousand fold dilution of Perxidase conjugated rabbit anti human λ-chains (Dako 063) and κ-chains (Dako 013) was added into each well. The MTP was again incubated for one hour ±5 minutes on a rotary mixer at 20° C. After 5 times washing, 100 μl of peroxidase substrate was added (3,3′,5,5′ tetramethylbenzidine dihydrochloride (TMB), Kirkegaard & Perry Laboratories, USA) and incubated for 15±2 minutes at room temperature (18-22° C.) in the dark. After addition of 0.18 M H2SO4, the absorbency was measured at 450 nm.
The experiment was carried out as follows. Serum samples were diluted one-hundred fold in 10 mM Na-phosphate, 140 mM NaCl, 0.1% tween-20, 1% BSA pH 7.4 (assay buffer). Two-hundred μl was added to 1.5 ml polypropylene tubes followed by addition of 50 μl of the following reagents dissolved in assay buffer at a concentration of 50 μg/ml:
The tubes were placed at 4° C. for 17 hours, and one-hundred μl of the mixture was added into MTP coated with Thy-GA-Trp-Leu-*Asx-Gly-Lys-Glu-Tyr conjugate. The assay was performed as described above under example 2.

[2] = tested on: auto-antibodies reactive with isomerised IgG Fc Asn-315 derived peptides; test: Homogeneous RIA with 125I Thy-GA-Trp-Leu-*Asx-Gly-Lys-Glu-Tyr tracer, competition with peptides (Example 4); assay type: binding, human; conditions: highest concentration (10,000 ng/ml); P-0.01 by Student's T-Test
Experimental: A homogeneous RIA assay was developed for measurement of auto-antibodies with reactivity towards the isomerised form of the epitope Trp-Leu-Asn-Gly-Lys-Glu-Tyr derived from the IgG CH2 region. The assay was performed by incubating serum samples with ^125I Thy-GA-Trp-Leu-*Asx-Gly-Lys-Glu-Tyr overnight followed by precipitation of immune-complexes with protein A Sepharose.
Serum samples are diluted 1:200 in IMP buffer (IMP-buffer: 10 mm Na-Phosphate, pH 7.4, 140 mM NaCl, 5 mM EDTA, 0.5% Triton X-100, 0.1% BSA, 10 μg/ml soy-bean trypsin inhibitor). A Thy-GA-Trp-Leu-*Asx-Gly-Lys-Glu-Tyr conjugate is prepared as described in example 2 and iodinated with ^125I using the chloramine T protocol: 100 μg of the conjugate is diluted in 0.25 M Na2HPO4 to a total volume of 140 μl. 1.5 mCi Na^125I is added followed by 10 μL Chloramin-T (1 mg/ml, prepared freshly). The solution is vortexed for 30 seconds and 150 μL methionine (1 mg/ml) is added and immediately vortexed for 120 sec. The tracer is purified on size exclusion column (type: BIOSEP SEC S-2000, size: 300×7.80 mm) equilibrated with PBS containing 1% BSA Plow rate 1.0 ml/min. 500 μl fractions are collected and analysed in a scintillation counter (γ-counter). The fractions containing the tracer are pooled and used in the homogeneous RIA assay format. […]

human immunoglobulin = test: Homogeneous RIA with 125I-BSA-BS3-Pro-Ser-Glu-γ-Gly-Lys-Gly-Arg-Gly in MS and control sera (Example 9); assay type: binding
Description: For this purpose the MBP derived octapeptide Pro-Ser-Glu-γ-Gly-Lys-Gly-Arg-Gly (γL) was manufactured synthetically using standard FMOC chemistry. The peptide was conjugated to bovine serum albumin (BSA) by Bis[sulfosuccinimidyl]suberate (BS^3) according to the manufacturers instructions (Pierce) and iodinated with ^125I using the chloramine T protocol as described in Example 4.
Serum from 9 MS-patients and 8 healthy persons are reacted overnight with ^125I-BSA-BS^3-Pro-Ser-Glu-γ-Gly-Lys-Gly-Arg-Gly followed by precipitation of immune complexes with protein A Sepharose. Serum samples are diluted 1:200 in IMP buffer. The ^125I BSA-BS^3-Pro-Ser-Glu-γ-Gly-Lys-Gly-Arg-Gly tracer is diluted in IMP buffer (to an activity of 100000 CPM/25 μl). Seventy-five μl of diluted serum sample is mixed with 25 μl tracer and 25 μl of either IMP buffer or free (unconjugated/unlabelled) Pro-Ser-Glu-γ-Gly-Lys-Gly-Arg-Gly peptide (in a concentration of […] in IMP buffer) is added to this mixture. This mixture is incubated overnight at 4° C. Protein. A Sepharose (PAS) 20 μl/sample vial is weighed out and washed 3 times with 10 ml IMP washing buffer, and transferred to eppendorf 1.5 ml tubes using a repeater pipette. The PAS is sedimented by centrifugation at 2000 RPM 2 min., and the supernatant is aspirated using a suction device (or a pipette). […]

| Substance | reactivity of purified RA auto-antibodies towards cellulose-bound peptide [1] | competition of binding of RA autoantibodies to Thy-GA-Trp-Leu-*Asx-Gly-Lys-Glu-Tyr coated plates (RA autoantibodies) | reactivity in competition RIA (percent inhibition by competing peptide), group basis [2] | inhibition of binding of tracer conjugate to human immunoglobulin by free peptide (human immunoglobulin; 25 μl free peptide, 10 μl/mL in IMP buffer) | % inhibition of immunoglobulin binding by free peptide, MS sera compared to control sera (human immunoglobulin; p=0.008, two-tailed non-parametric t-test) |
| --- | --- | --- | --- | --- | --- |
| His-Gln-Asp-Trp-Leu-Asp-β-Gly... [peptide IV] | strong reactivity |  |  |  |  |
| Trp-Leu-Asp-β-Gly-Lys-Glu-Tyr |  | able to compete out the binding | significant reactivity |  |  |
| Thy-GA-Trp-Leu-*Asx-Gly-Lys-Glu-Tyr: peptide coupled to thyroglobulin with glutaraldehyde |  | able to compete out the binding | significant reactivity |  |  |
| Pro-Ser-Glu-γ-Gly-Lys-Gly-Arg-Gly |  |  |  | could be specifically inhibited | significantly higher |
